The results in this text go back to patent US20230414514A1, “FORMULATION TO DETER ABUSE OF DRUGS BY SMOKING” (Purdue Research Foundation, priority 2022, published 2023).

This data set is described as follows: Thermogravimetric analysis (TGA), thermal stability / decomposition. The class given is physicochemical. The note with it: as stated in the description, conditions not given. Here is the method: Samples of 8.0-18.2 mg were placed in platinum TGA sample pans (CS Ceramic) and heated from room temperature to 700° C. at 20° C./min in a furnace under either inert (nitrogen) or oxidizing (air) atmosphere. The experiments were performed in triplicates (n=3) or quintuplicates (n=5). The data were exported and the TGA curves were analysed using TA Universal Analysis Software (Universal Analysis 2000 Version 4.5A, TA Instruments-Waters LLC, New Castle, DE) to determine onset degradation temperatures (Ton,degradation) and weight percent losses of the materials used in this study over the temperature intervals of interest. The values were averaged and reported as mean±standard deviation.
FIG. 3A and FIG. 3B show the TGA profiles for PLA and PCL respectively. […] The mean Ton,degradation of PLA was 278.8±3.8° C., with the average weight percent loss of 98.6±0.3% (n=3) during the decomposition step. The mean Ton,degradation of PCL was 353.1±1.7° C., and the weight percent loss averaged 97.9±1.1% (n=3).
PLA-PCL MS with a 1:9 polymer ratio lost 12.3±0.8% weight (n=3) during the first decomposition step, and 84.7±0.6% weight (n=3) during the second step. The mean weight percent loss for the PLA-PCL MS with a 5:5 ratio of PLA to PCL was 56.5±0.9% (n=3) and 38.4±1.1% (n=3) during the first and second thermal degradation steps. […]

Turning to `COC1=CC=C2[C@H]3Cc4ccc(OC)c5c4[C@@]2(CCN3C)[C@H]1O5` [THB, Thebaine], the thermal decomposition temperature result is “about 183 °C”.
